{"source": "paper PMC7966384", "about": "“In vivo and in vitro reconstitution of unique key steps in cystobactamid antibiotic biosynthesis” (Nature Communications, 2021)", "key": {"CysH": {"target": "T1, CysH (Cystobacter sp. Cbv34, UniProt A0A0H4NUD7)", "T1 construct": "full-length A-T module with 38 kDa AMDH domain inserted; E. coli BL21(DE3), pHisSUMOTEV, N-terminal 6xHis tag, TEV protease treated", "T1 sequence (A0A0H4NUD7 entry or part of it)": "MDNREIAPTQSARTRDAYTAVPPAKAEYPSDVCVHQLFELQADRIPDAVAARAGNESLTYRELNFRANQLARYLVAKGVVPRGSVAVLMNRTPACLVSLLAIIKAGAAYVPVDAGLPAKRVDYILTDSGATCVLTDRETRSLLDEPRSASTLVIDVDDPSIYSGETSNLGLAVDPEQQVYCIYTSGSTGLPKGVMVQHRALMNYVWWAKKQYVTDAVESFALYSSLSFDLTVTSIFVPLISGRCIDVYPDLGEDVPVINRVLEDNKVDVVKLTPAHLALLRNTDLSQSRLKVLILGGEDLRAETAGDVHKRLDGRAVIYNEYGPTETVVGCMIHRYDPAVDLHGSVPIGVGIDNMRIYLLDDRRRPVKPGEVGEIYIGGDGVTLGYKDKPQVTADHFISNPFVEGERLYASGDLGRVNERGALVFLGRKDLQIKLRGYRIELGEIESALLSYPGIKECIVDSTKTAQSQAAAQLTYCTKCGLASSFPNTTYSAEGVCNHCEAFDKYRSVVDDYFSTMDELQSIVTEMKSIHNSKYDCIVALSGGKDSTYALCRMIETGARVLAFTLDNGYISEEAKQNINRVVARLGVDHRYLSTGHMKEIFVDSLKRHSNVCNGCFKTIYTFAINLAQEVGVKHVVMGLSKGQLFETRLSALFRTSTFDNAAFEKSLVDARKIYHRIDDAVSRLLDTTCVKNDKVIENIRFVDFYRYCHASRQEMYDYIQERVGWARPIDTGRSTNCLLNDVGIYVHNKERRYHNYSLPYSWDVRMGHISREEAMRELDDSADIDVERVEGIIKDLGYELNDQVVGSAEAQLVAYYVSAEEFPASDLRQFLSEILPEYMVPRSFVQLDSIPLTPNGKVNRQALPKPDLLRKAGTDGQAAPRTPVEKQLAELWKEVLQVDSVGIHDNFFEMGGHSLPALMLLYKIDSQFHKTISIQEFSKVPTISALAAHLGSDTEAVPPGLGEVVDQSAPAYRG", "experiment": "intact protein ESI-MS, loading onto T domain", "assay_type": "biochemical", "settings": "1 mM ATP, 10 mM MgCl2, pH 7.5, room temperature; covalent (T domain thioester); 1 mM amino acid, 5 µM protein"}, "CysH∆AMDH": {"target": "T2, CysH∆AMDH (Cystobacter sp. Cbv34, UniProt A0A0H4NUD7)", "T2 construct": "E. coli BL21(DE3)", "T2 sequence (A0A0H4NUD7 entry or part of it)": "as above", "experiment": "intact protein ESI-MS, loading onto T domain", "assay_type": "biochemical", "settings": "1 mM ATP, 10 mM MgCl2, pH 7.5, room temperature; covalent (T domain thioester); 1 mM amino acid, 5 µM protein"}}}
{"smiles": "NC(=O)C[C@H](N)C(=O)O", "note": "[L-asparagine]", "values": [{"measurement": "intact protein ESI-MS, loading onto T domain", "setting": "CysH", "result": "L-asparagine was favored as substrate by CysH"}, {"measurement": "intact protein ESI-MS, loading onto T domain", "setting": "CysH∆AMDH", "result": "Incubation of CysH∆AMDH with L-asparagine only resulted in substrate loading"}]}
{"smiles": "NC(=O)[C@@H](N)CC(=O)O", "note": "[L-isoasparagine]", "values": [{"measurement": "intact protein ESI-MS, loading onto T domain", "setting": "CysH", "result": "we also observed loading of L-glutamine, β-cyano-L-alanine, and L-isoasparagine"}]}
